Measured values reported in US6525001B1, “Substituted pyrimidine and pyridine herbicides” (Mid-American Commercialization Corporation, priority 1997, dated 2003).

Experiments:
Assay in all cases: Test B pre-/postemergence
Format in all cases: in vivo
Set-up in all cases: key: 0 is no effect; 10 is complete control
rape (Brassica napus) = test system: rape (Brassica napus)
How it was run: (§1)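 Seeds were planted and sprayed preemergence, while plants at 2 to 18 cm (1- to 4-leaf stage) were sprayed postemergence at the same time, with test chemical in a non-phytotoxic solvent mixture containing surfactant. After twelve to sixteen days in a greenhouse, injury was rated visually against untreated controls on a 0–10 scale.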

[1] = test system: crabgrass (Digitaria sanguinalis)
How it was run: as §1

[2] = test system: sugar beet (Beta vulgaris)
How it was run: as §1

[3] = test system: purple nutsedge (Cyperus rotundus)
How it was run: as §1

[4] = test system: bedstraw (Galium aparine)
How it was run: as §1

[5] = test system: wheat (Triticum aestivum)
How it was run: as §1

corn (Zea mays) = test system: corn (Zea mays)
How it was run: as §1

[6] = test system: giant foxtail (Setaria faberii)
How it was run: as §1

wild oat (Avena fatua) = test system: wild oat (Avena fatua)
How it was run: as §1

[7] = test system: velvetleaf (Abutilon theophrasti)
How it was run: as §1

soybean (Glycine max) = test system: soybean (Glycine max)
How it was run: as §1

How did the “Plant response rating, Rape” value (rape (Brassica napus); Rate 62 g/ha, Postemergence) turn out when `Cc1cnc(-c2ccc(C(F)(F)F)cc2)nc1Cc1cccc(C(F)(F)F)c1` [Example 1, 5-methyl-2-[4-(trifluoromethyl)phenyl]-4-[[3-(trifluoromethyl)phenyl]methyl]pyrimidine] was run?
The value was 9.

What about the “Rape plant response rating” value (rape (Brassica napus); Rate 62 g/ha, Preemergence) of the same compound?
The value was 10.

And the “Plant response rating, Rape” value (rape (Brassica napus); Rate 125 g/ha, Postemergence)?
The value was 9.

And the “Rape plant response rating” value (rape (Brassica napus); Rate 125 g/ha, Preemergence)?
The value was 10.

And the “Plant response rating, Rape” value (rape (Brassica napus); Rate 250 g/ha, Postemergence)?
Its value is 9.

What about the “Plant response rating, Rape” value (rape (Brassica napus); Rate 250 g/ha, Preemergence) of the same compound?
The value was 10.

And the “Plant response rating, Rape” value (rape (Brassica napus); Rate 500 g/ha, Postemergence)?
Its value is 9.

And the “Plant response rating, Rape” value (rape (Brassica napus); Rate 500 g/ha, Preemergence)?
The value was 10.

What about the “Plant response rating, Crabgrass” value ([1]; Rate 62 g/ha, Postemergence) of the same compound?
The value was 4.

What about the “Crabgrass plant response rating” value ([1]; Rate 62 g/ha, Preemergence) of the same compound?
The value was 10.

And the “Plant response rating, Crabgrass” value ([1]; Rate 125 g/ha, Postemergence)?
The value was 9.

And the “Crabgrass plant response rating” value ([1]; Rate 125 g/ha, Preemergence)?
The value was 10.

And the “Plant response rating, Crabgrass” value ([1]; Rate 250 g/ha, Postemergence)?
The value was 9.

What about the “Plant response rating, Crabgrass” value ([1]; Rate 250 g/ha, Preemergence) of the same compound?
Its value is 10.

What about the “Plant response rating, Crabgrass” value ([1]; Rate 500 g/ha, Postemergence) of the same compound?
The value was 9.

What about the “Plant response rating, Crabgrass” value ([1]; Rate 500 g/ha, Preemergence) of the same compound?
The value was 10.

And the “Plant response rating, Sugarbeets” value ([2]; Rate 62 g/ha, Postemergence)?
Its value is 10.

And the “Sugarbeets plant response rating” value ([2]; Rate 62 g/ha, Preemergence)?
Its value is 10.

What about the “Plant response rating, Sugarbeets” value ([2]; Rate 125 g/ha, Postemergence) of the same compound?
Its value is 10.

And the “Sugarbeets plant response rating” value ([2]; Rate 125 g/ha, Preemergence)?
The value was 10.

What about the “Plant response rating, Sugarbeets” value ([2]; Rate 250 g/ha, Postemergence) of the same compound?
The value was 10.

What about the “Plant response rating, Sugarbeets” value ([2]; Rate 250 g/ha, Preemergence) of the same compound?
The value was 10.

What about the “Plant response rating, Sugarbeets” value ([2]; Rate 500 g/ha, Postemergence) of the same compound?
The value was 10.

And the “Plant response rating, Sugarbeets” value ([2]; Rate 500 g/ha, Preemergence)?
Its value is 10.

And the “Nutsedge plant response rating” value ([3]; Rate 62 g/ha, Preemergence)?
The value was 0.

And the “Nutsedge plant response rating” value ([3]; Rate 125 g/ha, Preemergence)?
Its value is 0.

What about the “Plant response rating, Nutsedge” value ([3]; Rate 250 g/ha, Postemergence) of the same compound?
Its value is 1.

And the “Plant response rating, Nutsedge” value ([3]; Rate 500 g/ha, Postemergence)?
The value was 2.

And the “Plant response rating, Nutsedge” value ([3]; Rate 500 g/ha, Preemergence)?
The value was 1.

And the “Plant response rating, Bedstraw” value ([4]; Rate 62 g/ha, Postemergence)?
The value was 9.

What about the “Bedstraw plant response rating” value ([4]; Rate 62 g/ha, Preemergence) of the same compound?
Its value is 8.

What about the “Plant response rating, Bedstraw” value ([4]; Rate 125 g/ha, Postemergence) of the same compound?
The value was 9.

And the “Bedstraw plant response rating” value ([4]; Rate 125 g/ha, Preemergence)?
The value was 8.

And the “Plant response rating, Bedstraw” value ([4]; Rate 250 g/ha, Postemergence)?
Its value is 9.

And the “Plant response rating, Bedstraw” value ([4]; Rate 250 g/ha, Preemergence)?
The value was 8.

And the “Plant response rating, Bedstraw” value ([4]; Rate 500 g/ha, Postemergence)?
Its value is 10.

What about the “Plant response rating, Bedstraw” value ([4]; Rate 500 g/ha, Preemergence) of the same compound?
Its value is 9.

And the “Plant response rating, Wheat” value ([5]; Rate 62 g/ha, Postemergence)?
The value was 2.

And the “Wheat plant response rating” value ([5]; Rate 62 g/ha, Preemergence)?
The value was 1.

What about the “Plant response rating, Wheat” value ([5]; Rate 125 g/ha, Postemergence) of the same compound?
The value was 2.

What about the “Wheat plant response rating” value ([5]; Rate 125 g/ha, Preemergence) of the same compound?
The value was 5.

What about the “Plant response rating, Wheat” value ([5]; Rate 250 g/ha, Postemergence) of the same compound?
The value was 3.

What about the “Plant response rating, Wheat” value ([5]; Rate 250 g/ha, Preemergence) of the same compound?
Its value is 8.

What about the “Plant response rating, Wheat” value ([5]; Rate 500 g/ha, Postemergence) of the same compound?
Its value is 5.

And the “Plant response rating, Wheat” value ([5]; Rate 500 g/ha, Preemergence)?
Its value is 9.

What about the “Plant response rating, Corn” value (corn (Zea mays); Rate 62 g/ha, Postemergence) of the same compound?
Its value is 4.

What about the “Corn plant response rating” value (corn (Zea mays); Rate 62 g/ha, Preemergence) of the same compound?
The value was 1.

And the “Plant response rating, Corn” value (corn (Zea mays); Rate 125 g/ha, Postemergence)?
The value was 4.

And the “Corn plant response rating” value (corn (Zea mays); Rate 125 g/ha, Preemergence)?
The value was 1.

What about the “Plant response rating, Corn” value (corn (Zea mays); Rate 250 g/ha, Postemergence) of the same compound?
Its value is 4.

And the “Plant response rating, Corn” value (corn (Zea mays); Rate 250 g/ha, Preemergence)?
The value was 2.

And the “Plant response rating, Corn” value (corn (Zea mays); Rate 500 g/ha, Postemergence)?
The value was 7.

What about the “Plant response rating, Corn” value (corn (Zea mays); Rate 500 g/ha, Preemergence) of the same compound?
Its value is 2.

What about the “Plant response rating, Giant foxtail” value ([6]; Rate 62 g/ha, Postemergence) of the same compound?
The value was 3.

And the “Giant foxtail plant response rating” value ([6]; Rate 62 g/ha, Preemergence)?
Its value is 10.

And the “Plant response rating, Giant foxtail” value ([6]; Rate 125 g/ha, Postemergence)?
Its value is 7.

What about the “Giant foxtail plant response rating” value ([6]; Rate 125 g/ha, Preemergence) of the same compound?
Its value is 10.

And the “Plant response rating, Giant foxtail” value ([6]; Rate 250 g/ha, Postemergence)?
The value was 9.

And the “Plant response rating, Giant foxtail” value ([6]; Rate 250 g/ha, Preemergence)?
Its value is 10.

What about the “Plant response rating, Giant foxtail” value ([6]; Rate 500 g/ha, Postemergence) of the same compound?
The value was 9.

What about the “Plant response rating, Giant foxtail” value ([6]; Rate 500 g/ha, Preemergence) of the same compound?
The value was 10.

And the “Plant response rating, Wild oats” value (wild oat (Avena fatua); Rate 62 g/ha, Postemergence)?
Its value is 4.

And the “Wild oats plant response rating” value (wild oat (Avena fatua); Rate 62 g/ha, Preemergence)?
The value was 8.

And the “Plant response rating, Wild oats” value (wild oat (Avena fatua); Rate 125 g/ha, Postemergence)?
The value was 7.

And the “Wild oats plant response rating” value (wild oat (Avena fatua); Rate 125 g/ha, Preemergence)?
The value was 9.

And the “Plant response rating, Wild oats” value (wild oat (Avena fatua); Rate 250 g/ha, Postemergence)?
The value was 7.

What about the “Plant response rating, Wild oats” value (wild oat (Avena fatua); Rate 250 g/ha, Preemergence) of the same compound?
The value was 9.

What about the “Plant response rating, Wild oats” value (wild oat (Avena fatua); Rate 500 g/ha, Postemergence) of the same compound?
The value was 9.

What about the “Plant response rating, Wild oats” value (wild oat (Avena fatua); Rate 500 g/ha, Preemergence) of the same compound?
The value was 10.

And the “Plant response rating, Velvetleaf” value ([7]; Rate 62 g/ha, Postemergence)?
Its value is 7.

And the “Velvetleaf plant response rating” value ([7]; Rate 62 g/ha, Preemergence)?
The value was 6.

And the “Plant response rating, Velvetleaf” value ([7]; Rate 125 g/ha, Postemergence)?
The value was 8.

And the “Velvetleaf plant response rating” value ([7]; Rate 125 g/ha, Preemergence)?
The value was 10.

And the “Plant response rating, Velvetleaf” value ([7]; Rate 250 g/ha, Postemergence)?
Its value is 9.

And the “Plant response rating, Velvetleaf” value ([7]; Rate 250 g/ha, Preemergence)?
The value was 10.

What about the “Plant response rating, Velvetleaf” value ([7]; Rate 500 g/ha, Postemergence) of the same compound?
The value was 9.

What about the “Plant response rating, Velvetleaf” value ([7]; Rate 500 g/ha, Preemergence) of the same compound?
The value was 10.

What about the “Plant response rating, Soybean” value (soybean (Glycine max); Rate 62 g/ha, Postemergence) of the same compound?
The value was 8.

And the “Soybean plant response rating” value (soybean (Glycine max); Rate 62 g/ha, Preemergence)?
Its value is 1.

And the “Plant response rating, Soybean” value (soybean (Glycine max); Rate 125 g/ha, Postemergence)?
The value was 8.

What about the “Soybean plant response rating” value (soybean (Glycine max); Rate 125 g/ha, Preemergence) of the same compound?
Its value is 1.

And the “Plant response rating, Soybean” value (soybean (Glycine max); Rate 250 g/ha, Postemergence)?
The value was 9.

What about the “Plant response rating, Soybean” value (soybean (Glycine max); Rate 250 g/ha, Preemergence) of the same compound?
The value was 3.

What about the “Plant response rating, Soybean” value (soybean (Glycine max); Rate 500 g/ha, Postemergence) of the same compound?
Its value is 9.

What about the “Plant response rating, Soybean” value (soybean (Glycine max); Rate 500 g/ha, Preemergence) of the same compound?
The value was 5.
